Measured values from patent publication US10570149B2, “Tricyclic heterocylic derivatives” (MERCK PATENT GMBH, priority 2016, dated 2020).

Tests used:
ATR/ATRIP = molecular target: T1, ATR/ATRIP (Homo sapiens, UniProt Q13535); assay: ATR/ATRIP kinase assay (TR-FRET, p53 phosphorylation); type: biochemical; details: Table 1, class symbols; read-out: ATR-ATRIP IC50
T1 construct: human ATR, full length, GenBank ID: NM_001184.3; p53: Sf21 insect cells

[1] = tested on: phosphorylation of Chk1 (Ser 345) in HT29 colon adenocarcinoma cells; assay: pCHK1 cellular assay; type: cell-based; details: Homo sapiens
Text: Chk1 kinase acts downstream of ATR and has a key role in DNA damage checkpoint control. Activation of Chk1 involves phosphorylation of Ser317 and Ser345 (regarded as the preferential target for phosphorylation/activation by ATR) and occurs in response to blocked DNA replication and certain forms of genotoxic stress. Phosphorylation at Ser 345 serves to localize Chk1 to the nucleus following checkpoint activation.
This assay measures a decrease in phosphorylation of Chk1 (Ser 345) in HT29 colon adenocarcinoma cells following treatment with compound and hydroxyurea (which promotes fork stalling because of dNTP depletion) and using an immunocytochemical procedure and high content imaging.
For the assay HT29 cells are plated in culture medium (DMEM high Glucose (no phenol red), 2 mM Glutamax, 1 mM Pyruvate, 10% FCS into Greiner 384 well plates, black, μclear #781090 (2500 cells/well/30 μl) and incubated for at least 20 hours at 37° C., 10% CO2 and 90% rH. Diluted test compounds (1 nM-30 μM final) and hydroxyurea (3 mM final) are added simultaneously and cells are incubated for 4 h at 37° C. After fixation/prmeabilisation with 100% MeOH (−20° C. cold) and permeabilisation with 0.2% Triton X-100 a complete immunocytochemical procedure is performed using a specific anti-pChk1 antibody (Cell Signaling, #2348BF) and fluorescently labelled secondary antibody (Alexa Fluor® 488 goat anti-rabbit F(ab′)2 fragment, Invitrogen A11070) and parallel nuclear staining for cell counting.
The nuclear localised pChk1 signal is detected on an ImageXpress Ultra confocal high content reader and reported as % positive cells (nuclei).

[2] = tested on: phosphorylation of H2AX (gH2AX) in U2OS-TopBP1-ER cells; assay: gH2AX-TopBP1ER cellular assay; type: cell-based
Text: gH2AX-TopBP1ER Cellular Assay
ATR activity is restricted to replicating cells and many of its targets can also be phosphorylated by other PIKKs. These restrictions have limited the development of selective cellular assays in the past. In order to overcome these limitations, a previously developed genetically engineered cellular system in which ATR, and only ATR, can be activated at will in every cell (Toledo et al Genes Dev. 22, 297-302 2008) was used. In this system, the addition of 4-hydroxytamoxifen (4-OHT), promotes the nuclear translocation of a fragment of TopBP1 which then activates ATR. The phosphorylation of H2AX that follows 4-OHT addition in these cells is a direct and selective readout of ATR activity, which is not influenced by the rest of PIKKs. This property has been used in a screen for compounds with ATR inhibitory capacity. U2OS-TopBP1-ER cells stably express the TopBP1 activation domain (aa 978-1286) fused to a mutated estrogen receptor ligand binding domain. Nuclear accumulation of the TopBP1-ER-LBD fusion protein is induced by the synthetic ER antagonist 4-hydroxytamoxifen (4-OHT) (and not by natural ER agonists) mediating specific ATR activation that is independent of DNA damage or cell cycle. In the assay phosphorylation of the ATR substrate H2AX (“gH2AX”) at Serin 139 is detected using an immune-cytochemical procedure and high content imaging. For the assay U2OS-TopBP1-ER cells are plated in culture medium (DMEM high Glucose (no phenol red), 2 mM Glutamax, 1 mM Pyruvate, 10% FCS into Greiner 384 well plates, black, μclear #781090 (4000 cells/well/30 μl) and incubated for at least 20 hours at 37° C., 10% CO2 and 90% rH. Diluted test compounds (1 nM-30 μM final) and 4-OHT (1 μM final) are added simultaneously and cells are incubated for 2 h at 37° C. After fixation with 4% formaldehyde and permeabilisation with 0.2% Triton X-100 a complete immunocytochemical procedure is performed using a specific anti-gH2AX-antibody (Millipore 05-636, clone JBW301) and fluorescently labelled secondary antibody (Alexa Fluor® 488 goat anti-mouse F(ab′)2 fragment, Invitrogen A11017) and parallel nuclear staining for cell counting. The nuclear localised gH2AX signal is detected on an ImageXpress Ultra confocal high content reader and reported as % positive cells (nuclei).

[3] = HT-29, Table 1, class symbols, hydroxyurea

T1 sequence (Q13535 whole entry): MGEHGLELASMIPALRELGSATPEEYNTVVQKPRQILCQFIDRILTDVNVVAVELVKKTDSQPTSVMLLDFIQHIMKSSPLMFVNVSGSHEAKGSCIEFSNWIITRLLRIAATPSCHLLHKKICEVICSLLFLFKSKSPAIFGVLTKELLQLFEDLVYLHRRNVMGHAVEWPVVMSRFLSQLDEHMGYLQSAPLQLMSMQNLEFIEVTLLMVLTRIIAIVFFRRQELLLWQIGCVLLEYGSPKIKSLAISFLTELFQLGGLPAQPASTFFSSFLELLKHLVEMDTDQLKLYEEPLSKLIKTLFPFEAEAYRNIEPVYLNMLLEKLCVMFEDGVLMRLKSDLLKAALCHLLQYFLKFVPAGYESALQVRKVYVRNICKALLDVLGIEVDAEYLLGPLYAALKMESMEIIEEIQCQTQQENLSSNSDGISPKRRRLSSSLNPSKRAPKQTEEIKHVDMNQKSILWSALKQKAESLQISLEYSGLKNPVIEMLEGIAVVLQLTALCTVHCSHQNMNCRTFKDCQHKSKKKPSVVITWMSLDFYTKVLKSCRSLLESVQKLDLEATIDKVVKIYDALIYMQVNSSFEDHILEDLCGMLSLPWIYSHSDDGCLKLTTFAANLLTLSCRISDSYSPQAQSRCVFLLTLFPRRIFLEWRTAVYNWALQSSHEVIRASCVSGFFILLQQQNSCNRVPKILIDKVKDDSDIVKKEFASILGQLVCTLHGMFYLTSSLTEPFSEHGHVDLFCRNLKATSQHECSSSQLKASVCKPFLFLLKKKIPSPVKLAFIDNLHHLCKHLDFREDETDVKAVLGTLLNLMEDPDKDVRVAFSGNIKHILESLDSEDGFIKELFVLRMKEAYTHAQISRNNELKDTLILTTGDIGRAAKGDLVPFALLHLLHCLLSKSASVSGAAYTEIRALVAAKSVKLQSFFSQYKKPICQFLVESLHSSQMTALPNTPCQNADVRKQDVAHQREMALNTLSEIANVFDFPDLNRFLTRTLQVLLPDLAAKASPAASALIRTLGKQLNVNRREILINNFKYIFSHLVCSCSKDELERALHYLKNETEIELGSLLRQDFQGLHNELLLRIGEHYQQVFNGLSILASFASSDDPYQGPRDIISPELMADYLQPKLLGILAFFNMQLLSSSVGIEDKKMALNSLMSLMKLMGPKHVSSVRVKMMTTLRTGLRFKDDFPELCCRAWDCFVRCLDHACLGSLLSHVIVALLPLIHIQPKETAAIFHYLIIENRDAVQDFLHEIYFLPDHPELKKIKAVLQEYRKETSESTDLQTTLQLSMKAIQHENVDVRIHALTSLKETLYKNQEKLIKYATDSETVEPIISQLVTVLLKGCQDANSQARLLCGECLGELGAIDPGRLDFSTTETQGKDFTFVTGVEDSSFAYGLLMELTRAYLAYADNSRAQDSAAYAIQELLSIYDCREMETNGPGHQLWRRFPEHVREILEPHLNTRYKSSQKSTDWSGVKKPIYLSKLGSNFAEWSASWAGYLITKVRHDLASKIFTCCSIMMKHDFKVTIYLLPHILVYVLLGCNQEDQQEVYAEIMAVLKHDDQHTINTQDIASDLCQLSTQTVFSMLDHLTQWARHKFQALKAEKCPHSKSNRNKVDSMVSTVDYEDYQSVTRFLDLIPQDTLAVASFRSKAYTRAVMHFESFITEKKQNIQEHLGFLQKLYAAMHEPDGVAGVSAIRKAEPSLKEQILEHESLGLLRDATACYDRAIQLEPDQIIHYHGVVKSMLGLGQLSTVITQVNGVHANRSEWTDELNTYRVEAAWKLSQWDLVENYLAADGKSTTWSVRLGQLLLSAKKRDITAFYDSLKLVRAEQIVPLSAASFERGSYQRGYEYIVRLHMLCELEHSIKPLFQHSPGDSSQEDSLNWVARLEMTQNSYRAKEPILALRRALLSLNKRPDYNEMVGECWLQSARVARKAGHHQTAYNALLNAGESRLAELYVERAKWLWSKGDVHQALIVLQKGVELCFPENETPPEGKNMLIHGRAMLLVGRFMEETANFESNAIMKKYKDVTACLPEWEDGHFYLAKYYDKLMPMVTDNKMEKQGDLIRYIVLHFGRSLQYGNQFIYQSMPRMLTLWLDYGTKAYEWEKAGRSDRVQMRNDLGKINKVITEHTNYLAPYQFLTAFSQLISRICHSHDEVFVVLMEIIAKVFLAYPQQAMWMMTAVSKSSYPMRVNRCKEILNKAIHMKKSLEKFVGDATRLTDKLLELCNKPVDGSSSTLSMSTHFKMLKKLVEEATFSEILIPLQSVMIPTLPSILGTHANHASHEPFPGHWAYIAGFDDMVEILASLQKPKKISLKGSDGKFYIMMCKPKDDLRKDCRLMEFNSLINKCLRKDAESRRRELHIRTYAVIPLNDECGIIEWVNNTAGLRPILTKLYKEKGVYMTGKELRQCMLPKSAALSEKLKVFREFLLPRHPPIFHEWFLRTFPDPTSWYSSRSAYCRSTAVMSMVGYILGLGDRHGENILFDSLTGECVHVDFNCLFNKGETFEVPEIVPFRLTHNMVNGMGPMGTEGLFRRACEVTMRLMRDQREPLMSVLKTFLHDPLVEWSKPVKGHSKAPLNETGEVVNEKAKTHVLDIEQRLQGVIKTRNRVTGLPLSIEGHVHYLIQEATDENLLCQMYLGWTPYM
T1 sequence (Q8WXE1 whole entry partner): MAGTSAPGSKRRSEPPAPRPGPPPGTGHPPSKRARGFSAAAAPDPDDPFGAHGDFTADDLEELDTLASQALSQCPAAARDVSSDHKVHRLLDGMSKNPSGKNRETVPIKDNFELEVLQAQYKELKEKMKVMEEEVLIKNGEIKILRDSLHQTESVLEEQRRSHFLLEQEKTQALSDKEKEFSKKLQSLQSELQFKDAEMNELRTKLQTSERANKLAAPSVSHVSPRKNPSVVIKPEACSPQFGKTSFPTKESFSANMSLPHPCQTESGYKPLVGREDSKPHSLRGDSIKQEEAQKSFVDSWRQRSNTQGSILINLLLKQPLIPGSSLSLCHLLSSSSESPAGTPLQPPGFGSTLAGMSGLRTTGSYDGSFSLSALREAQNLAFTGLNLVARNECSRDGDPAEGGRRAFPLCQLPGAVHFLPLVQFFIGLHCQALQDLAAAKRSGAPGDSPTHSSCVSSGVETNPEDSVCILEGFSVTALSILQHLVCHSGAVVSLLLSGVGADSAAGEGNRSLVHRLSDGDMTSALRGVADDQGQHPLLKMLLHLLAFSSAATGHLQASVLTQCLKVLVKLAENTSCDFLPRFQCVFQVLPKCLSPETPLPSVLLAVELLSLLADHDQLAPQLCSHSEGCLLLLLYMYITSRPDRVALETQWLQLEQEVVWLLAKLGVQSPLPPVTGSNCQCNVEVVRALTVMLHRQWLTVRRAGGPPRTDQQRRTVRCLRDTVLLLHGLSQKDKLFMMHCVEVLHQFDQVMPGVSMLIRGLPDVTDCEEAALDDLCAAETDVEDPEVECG

SMILES	IC50 (ATR/ATRIP)	IC50 [1, 3]	IC50 ([2]; Table 1, class symbols, 4-OHT)	IC50 ([1]; HT-29, Table 2, hydroxyurea)	IC50 ([2]; Table 2, 4-OHT)
C[C@@H]1COC[C@H]2COc3c(nc(-c4c(N)cnc5[nH]ccc45)nc3C(C)(C)O)N21 [A21, 2-[(5R,8aS)-3-(5-Amino-1H-pyrrolo[2,3-b]pyridin-4-yl)-5-methyl-5,6,8a,9-tetrahydro-8H-7,10-dioxa-2,4,4b-triaza-phenanthren-1-yl]-propan-2-ol]	< 1 nM	100 to 1000 nM	10 to 100 nM	–	–
CNc1nc2ccccc2n1-c1nc2c(c(C(C)(C)S(C)(=O)=O)n1)OC[C@@H]1COC[C@@H](C)N21 [A15, {1-[(5R,8aS)-1-(1-Methanesulfonyl-1-methyl-ethyl)-5-methyl-5,6,8a,9-tetrahydro-8H-7,10-dioxa-2,4,4b-triaza-phenanthren-3-yl]-1H-benzimidazol-2-yl}-methyl-amine]	< 1 nM	< 10 nM	< 10 nM	2.9 nM	7.4 nM
C[C@@H]1COC[C@H]2COc3c(nc(-c4c(F)cnc5[nH]ccc45)nc3C(C)(C)O)N21 [A7, 2-[(5R,8aS)-3-(5-Fluoro-1H-pyrrolo[2,3-b]pyridin-4-yl)-5-methyl-5,6,8a,9-tetrahydro-8H-7,10-dioxa-2,4,4b-triaza-phenanthren-1-yl]-propan-2-ol]	1 to 10 nM	100 to 1000 nM	100 to 1000 nM	–	–
CNc1nc2ccccc2n1-c1nc2c(c(C(C)(C)O)n1)OC[C@@H]1COC[C@@H](C)N21 [A9, 2-[(5R,8aS)-5-Methyl-3-(2-methylamino-benzimidazol-1-yl)-5,6,8a,9-tetrahydro-8H-7,10-dioxa-2,4,4b-triaza-phenanthren-1-yl]-propan-2-ol]	< 1 nM	10 to 100 nM	100 to 1000 nM	–	–
CNc1cnc2[nH]ccc2c1-c1nc2c(c(C(C)(C)O)n1)OC[C@@H]1COC[C@@H](C)N21 [A23, 2-[(5R,8aS)-5-Methyl-3-(5-methylamino-1H-pyrrolo[2,3-b]pyridin-4-yl)-5,6,8a,9-tetrahydro-8H-7,10-dioxa-2,4,4b-triaza-phenanthren-1-yl]-propan-2-ol]	1 to 10 nM	10 to 100 nM	100 to 1000 nM	–	–
Cc1nc2ccccc2n1-c1nc2c(c(C(C)(C)S(C)(=O)=O)n1)OC[C@@H]1COC[C@@H](C)N21 [A24, (5R,8aS)-1-(1-Methanesulfonyl-1-methyl-ethyl)-5-methyl-3-(2-methylbenzimidazol-1-yl)-5,6,8a,9-tetrahydro-8H-7,10-dioxa-2,4,4b-triaza-phenanthrene]	< 1 nM	10 to 100 nM	100 to 1000 nM	–	–
C[C@@H]1COC[C@H]2COc3c(nc(-c4ccnc5[nH]ccc45)nc3C(C)(C)O)N21 [A6, 2-[(5R,8aS)-5-Methyl-3-(1H-pyrrolo[2,3-b]pyridin-4-yl)-5,6,8a,9-tetrahydro-8H-7,10-dioxa-2,4,4b-triaza-phenanthren-1-yl]-propan-2-ol]	< 1 nM	10 to 100 nM	10 to 100 nM	–	–
CNc1nc2ccccc2n1-c1nc2c(c(C3(S(C)(=O)=O)CC3)n1)OC[C@@H]1COC[C@@H](C)N21 [A26, {1-[(4bR,8S)-1-(1-Methanesulfonyl-cyclopropyl)-5-methyl-5,6,8a,9-tetrahydro-8H-7,10-dioxa-2,4,4b-triaza-phenanthren-3-yl]-1H-benzimidazol-2-yl}-methylamine]	< 1 nM	10 to 100 nM	10 to 100 nM	25 nM	37 nM
C[C@@H]1COC[C@H]2COc3c(nc(-c4c(N)cnc5[nH]ccc45)nc3C3(S(C)(=O)=O)CC3)N21 [A37, 4-[(10S,14R)-6-(1-methanesulfonylcyclopropyl)-14-methyl-8,12-dioxa-1,3,5-triazatricyclo[8.4.0.0^2,7]tetradeca-2,4,6-trien-4-yl]-1H-pyrrolo[2,3-b]pyridin-5-amine]	< 1 nM	100 to 1000 nM	–	–	–
[2H]C([2H])([2H])Nc1cnc2[nH]ccc2c1-c1nc2c(c(C(C)(C)S(C)(=O)=O)n1)OC[C@@H]1COC[C@@H](C)N21 [A42, 4-[(10S,14R)-6-(2-methanesulfonylpropan-2-yl)-14-methyl-8,12-dioxa-1,3,5-triazatricyclo[8.4.0.0^2,7]tetradeca-2,4,6-trien-4-yl]-N-(^2H3)methyl-1H-pyrrolo[2,3-b]pyridin-5-amine]	1 to 10 nM	10 to 100 nM	–	–	–
CNc1nc2c(F)cccc2n1-c1nc2c(c(C(C)(C)S(C)(=O)=O)n1)OC[C@@H]1COC[C@@H](C)N21 [A25, {4-Fluoro-1-[(5R,8aS)-1-(1-methanesulfonyl-1-methyl-ethyl)-5-methyl-5,6,8a,9-tetrahydro-8H-7,10-dioxa-2,4,4b-triaza-phenanthren-3-yl]-1H-benzimidazol-2-yl}-methyl-amine]	< 1 nM	10 to 100 nM	100 to 1000 nM	–	–
CNc1nccn1-c1nc2c(c(C(C)(C)S(C)(=O)=O)n1)OC[C@@H]1COC[C@@H](C)N21 [A10, {1-[(5R,8aS)-1-(1-Methanesulfonyl-1-methyl-ethyl)-5-methyl-5,6,8a,9-tetrahydro-8H-7,10-dioxa-2,4,4b-triaza-phenanthren-3-yl]-1H-imidazol-2-yl}-methyl-amine]	10 to 100 nM	10 to 100 nM	100 to 1000 nM	–	–
C[C@@H]1COC[C@H]2COc3c(nc(-c4ccc(-c5ncc[nH]5)cc4)nc3C(C)(C)S(C)(=O)=O)N21 [A44, (10S,14R)-4-[4-(1H-imidazol-2-yl)phenyl]-6-(2-methanesulfonylpropan-2-yl)-14-methyl-8,12-dioxa-1,3,5-triazatricyclo[8.4.0.0^2,7]tetradeca-2,4,6-triene]	< 1 nM	100 to 1000 nM	–	–	–
CNc1ncc2[nH]ccc2c1-c1nc2c(c(C(C)(C)S(C)(=O)=O)n1)OC[C@@H]1COC[C@@H](C)N21 [A27, {4-[(5R,8aS)-1-(1-Methanesulfonyl-1-methyl-ethyl)-5-methyl-5,6,8a,9-tetrahydro-8H-7,10-dioxa-2,4,4b-triaza-phenanthren-3-yl]-1H-pyrrolo[2,3-c]pyridin-5-yl}-methyl-amine]	< 1 nM	< 10 nM	–	–	–
C[C@@H]1COC[C@H]2COc3c(nc(-n4c(N)nc5ccccc54)nc3C(C)(C)S(C)(=O)=O)N21 [A11, 1-[(5R,8aS)-1-(1-Methanesulfonyl-1-methyl-ethyl)-5-methyl-5,6,8a,9-tetrahydro-8H-7,10-dioxa-2,4,4b-triaza-phenanthren-3-yl]-1H-benzimidazol-2-ylamine]	< 1 nM	10 to 100 nM	100 to 1000 nM	–	–
